{P} = phosphate
Tests used:
Assay type in all cases: cell-based, human
[1] = system: p21/Waf 1/Cip 1 gene; test: p21 mRNA Northern blot in SCC12F cells; conditions: for p21 mRNA level relative to diluent control: 48 hours, FIG. 13; for increase of p21/Waf 1/Cip 1 mRNA level: within 48 hours
Method: The induction of melanogenesis in Cloudman S91 mouse melanoma cells by a five-nucleotide oligomer CATAC (SEQ ID NO: 6) and a nine-nucleotide oligomer, GAGTATGAG (SEQ ID NO: 1) was examined. Duplicates of Cloudman S91 murine melanoma cells were incubated with either 100 μM oligo or an equal volume of diluent (H2O) for 5 days. The cells were then collected, counted, and an equal number of cells were pelleted for melanin analysis. […] Variations of this oligonucleotide were evaluated: a scrambled 9-mer (TAGGAGGAT; SEQ ID NO: 2) and two truncated versions, a 7-mer (AGTATGA; SEQ ID NO: 3) and second 5-mer (GTATG; SEQ ID NO: 4). […] The truncated versions (SEQ ID NOs: 3 and 4) were also active, inducing 640% and 670% increases, respectively.
pTpT was previously found to inhibit cell cycle progression, at least in part through activation of p53 and subsequent upregulation of the cyclin dependent kinase inhibitor p21. Cultures of the human keratinocyte line SCC12F were treated with pTpT, SEQ ID NO: 1, SEQ ID NO: 6 or diluent alone as a negative control, collected and counted 48 hours later and processed for northern blot analysis of p21 mRNA expression. […] Thus, the sequences of the present invention activate p53 and inhibit cell proliferation similar to the effect of pTpT.

[2] = system: SDI 1 mRNA; test: SDI 1 mRNA in H1299 cells with or without p53 expression vector; conditions: 100 μM, 24 hours
Method: Preconfluent cultures of H1299 cells were transfected with an expression vector containing the wild type human p53 cDNA under the control of the human cytomegalovirus promoter/enhancer (Dr. Bert Vogelstein, Johns Hopkins Oncology Center). Control transfections were performed using the vector from which the p53 cDNA was removed. Transfections were carried out using the Lipofectin Reagent Kit (GIBCO/BRL). One day after transfection, cells were collected for Western blot analysis using 20 μg total protein as described (Yaar, M. et al., J. Clin. Invest. 94:1550–1562 (1994)). p53 was detected using mAb 421, anti-mouse Ig linked to horseradish peroxidase (Amersham, Arlington Heights, Ill.) and an ECL-kit (Amersham), following the directions of the manufacturer. At the time of protein collection, duplicate cultures of H1299 cells transfected with the p53 expression vector (designated “p53”) or control vector (“Ctrl”) were given either diluent (DMEM) or 100 μM pTpT. After 24 hours, the cells were collected, processed for RNA isolation and Northern blot analysis with an SDI 1 cDNA probe. The autoradiograph was scanned using a Macintosh IIsi computer and Macintosh One Scanner, and the brightness and contrast were adjusted to display differences in autoradiographic signals maximally. […]

[3] = system: T cell proliferation; test: Allogenic mixed lymphocyte reaction with keratinocyte culture medium; conditions: >10 kD components of culture medium from 72 hour sample
Method: The immunomodulatory effect of pTpT was tested in vitro using human keratinocytes. Duplicate cultures of primary human keratinocytes were treated with pTpT, diluent or UVB irradiation (200 J/m^2) or sham irradiation. Cells were collected at various times after treatment and analyzed for IL-10 protein by ELISA and for IL-10 mRNA by RT-PCR. An increase in IL-10 mRNA was detected after 6 hours in irradiated cells and after 48 hours in pTpT treated cells. An increase in IL-10 protein of 18 pg/ml was detected 24 hours after irradiation and 15±2 pg/ml 72 hours after treatment with pTpT. […] In the allogenic MLR, T cell activation is measured as lymphocyte proliferation, measured by ^3H-thymidine incorporation. IL-10 activity of culture medium from the 72 hour pTpT sample was measured by addition of the >10 kD components (containing the 18 kD IL-10 protein). […] Thus, like UVB irradiation, pTpT induces IL-10 in human keratinocytes which is likely to cooperate with TNFα to inhibit contact hypersensitivity in pTpT treated skin.

| Substance | p21 mRNA level relative to diluent control [1] | increase of p21/Waf 1/Cip 1 mRNA level [1] | level of SDI 1 transcript ([2]; H1299 transfected with wild-type p53 expression vector) | level of SDI 1 transcript ([2]; p53-null H1299 cells) | reduction in T cell proliferation [3] [%] |
| --- | --- | --- | --- | --- | --- |
| pGAGTATGAG (DNA, 5' {P}, backbone not given here) [SEQ ID NO: 1] | ~3 fold | 200–300% | – | – | – |
| thymidine dinucleotide [pTpT] | twice that of control cells | 100–150% | inducible by addition of pTpT | not affected by addition of pTpT | 80±5 |
